Reference: patent US10363257B2 (ZENITH EPIGENETICS LTD., priority 2013, dated 2019)

How the values were obtained:
hIL-6 mRNA = assay: Inhibition of hIL-6 mRNA transcription in LPS-stimulated U937 cells; assay type: cell-based; settings: Homo sapiens, U-937; PMA-differentiated U937 cells, 1 h pretreatment, 1 ug/mL LPS stimulation, 3 h; read-out: IL-6 activity (Inhibition of hIL-6 mRNA Transcription)
Summary of the method: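 U937 cells differentiated 3 days with 60 ng/mL PMA, pretreated 1 h with compound (0.1% DMSO), then stimulated with 1 ug/mL E. coli LPS for 3 h at 37 °C. hIL-6 mRNA measured by one-step TaqMan RT-qPCR, normalized to cyclophilin. Fold expression relative to control; triplicate wells.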

c-myc = assay: Inhibition of c-myc expression (mRNA, real-time PCR) in MV4-11 cells; assay type: cell-based; settings: Human AML MV4-11 cells, 3 h, cMYC mRNA
Summary of the method: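 MV4-11 cells treated 3 h at 37° C with increasing compound concentrations or 0.1% DMSO, in triplicate. cMYC mRNA quantified by one-step TaqMan real-time PCR, Ct normalized to internal control (Cyclophilin primers used), fold expression relative to control.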

[1] = molecular target: T1, Brd4 bromodomain 1 (BRD4(1)) (Homo sapiens, UniProt O60885); assay: Inhibition of tetra-acetylated histone H4 binding to Brd4 bromodomain 1 (TR-FRET); settings: tetra-acetylated histone H4 peptide, first bromodomain of Brd4
T1 construct: made in house; host or cells: E. coli BL21(DE3)
Summary of the method: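 His-tagged BRD4(1) from E. coli (200 nM) with biotinylated tetra-acetylated H4 peptide (25-50 nM), Eu-cryptate streptavidin and XL665 anti-His, in HEPES pH 7.4/phosphate/KF buffer, 0.2% DMSO. After 2 h at room temperature, TR-FRET 665/620 nm ratio read; IC50 from dose-response curves.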

human AML MV-4-11 cells = assay: Inhibition of cell proliferation in MV4-11 cells (CellTiter Aqueous One); assay type: cell-based; settings: MV4-11, 72 h
Summary of the method: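 Exponentially growing MV-4-11 cells (5×10^4/well) were treated immediately with two-fold dilutions of compound from 30 μM to 0.2 μM, in triplicate, for 72 h at 37° C, 5% CO2. Viability was measured by MTS absorbance at 490 nm after 3–4 h. Proliferation relative to DMSO after blank correction gave IC50.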

IC50 (hIL-6 mRNA) [nM] | IC50 (c-myc) [nM] | IC50 [1] [nM] | IC50 (human AML MV-4-11 cells) [nM] | SMILES
≤ 300 | 300 to 3000 | ≤ 300 | ≤ 300 | Cc1noc(C)c1-c1cnc2nc(N)n(Cc3ccccc3)c2c1 [compound 216, 1-benzyl-6-(3,5-dimethylisoxazol-4-yl)-1H-imidazo[4,5-b]pyridin-2-amine]
300 to 3000 | 300 to 3000 | ≤ 300 | 300 to 3000 | Cc1noc(C)c1-c1cnc2nc(C)n(Cc3ccc(O)cc3)c2c1 [compound 84, 4-((6-(3,5-dimethylisoxazol-4-yl)-2-methyl-1H-imidazo[4,5-b]pyridin-1-yl)methyl)phenol]
300 to 3000 | 300 to 3000 | ≤ 300 | 300 to 3000 | Cc1noc(C)c1-c1cc(N)c2cnn(Cc3ccccc3)c2c1 [Example Compound 54, 1-benzyl-6-(3,5-dimethylisoxazol-4-yl)-1H-indazol-4-amine]
≤ 300 | ≤ 300 | ≤ 300 | ≤ 300 | Cc1noc(C)c1-c1cc(N)c2nc(C)n([C@@H](C)c3ccccc3)c2c1 [compound 143, (S)-6-(3,5-dimethylisoxazol-4-yl)-2-methyl-1-(1-phenylethyl)-1H-benzo[d]imidazol-4-amine]
300 to 3000 | 300 to 3000 | ≤ 300 | 300 to 3000 | Cc1noc(C)c1-c1cnc2c(Br)cn(Cc3ccccc3)c2c1 [Example Compound 34, 4-(1-benzyl-3-bromo-1H-pyrrolo[3,2-b]pyridin-6-yl)-3,5-dimethylisoxazole]
≤ 300 | ≤ 300 | ≤ 300 | 300 to 3000 | Cc1noc(C)c1-c1cc(N)c2cnn(Cc3ccc(Cl)cc3)c2c1 [compound 102, 1-(4-chlorobenzyl)-6-(3,5-dimethylisoxazol-4-yl)-1H-indazol-4-amine]
300 to 3000 | 300 to 3000 | 300 to 3000 | 300 to 3000 | Cc1noc(C)c1-c1cnc2cnn(Cc3ccsc3)c2c1 [compound 98, 3,5-dimethyl-4-(1-(thiophen-3-ylmethyl)-1H-pyrazolo[4,3-b]pyridin-6-yl)isoxazole]
300 to 3000 | 300 to 3000 | ≤ 300 | 3000 to 30000 | Cc1noc(C)c1-c1cnc2nc(C)n(Cc3ccc(Cl)cc3Cl)c2c1 [Example Compound 61, 4-(1-(2,4-dichlorobenzyl)-2-methyl-1H-imidazo[4,5-b]pyridin-6-yl)-3,5-dimethylisoxazole]
300 to 3000 | 300 to 3000 | ≤ 300 | 3000 to 30000 | Cc1noc(C)c1-c1cc([N+](=O)[O-])c2[nH]c(=O)n(Cc3ccc(Cl)cc3)c2c1 [compound 91, 1-(4-chlorobenzyl)-6-(3,5-dimethylisoxazol-4-yl)-4-nitro-1H-benzo[d]imidazol-2(3H)-one]
300 to 3000 | 300 to 3000 | 300 to 3000 | 300 to 3000 | Cc1noc(C)c1-c1ccc2oc(=O)n(Cc3ccccc3)c2c1 [Example Compound 6, 3-Benzyl-5-(3,5-dimethylisoxazol-4-yl)benzo[d]oxazol-2(3H)-one]
300 to 3000 | 300 to 3000 | ≤ 300 | 300 to 3000 | CNc1cc(-c2c(C)noc2C)cc2c1ncn2Cc1ccc(F)cc1 [Example Compound 28, 6-(3,5-dimethylisoxazol-4-yl)-1-(4-fluorobenzyl)-N-methyl-1H-benzo[d]imidazol-4-amine]
300 to 3000 | 3000 to 30000 | ≤ 300 | 3000 to 30000 | Cc1noc(C)c1-c1cnc2cnn(Cc3ccc(Cl)cc3)c2c1 [compound 93, 4-(1-(4-chlorobenzyl)-1H-pyrazolo[4,3-b]pyridin-6-yl)-3,5-dimethylisoxazole]

More lines, now with the values behind:

SMILES | IC50 (hIL-6 mRNA) [nM] | IC50 (c-myc) [nM] | IC50 [1] [nM] | IC50 (human AML MV-4-11 cells) [nM]
Cc1noc(C)c1-c1cc(NCc2ccccc2)c2ncn(Cc3ccccc3)c2c1 [Example Compound 9, N,1-Dibenzyl-6-(3,5-dimethylisoxazol-4-yl)-1H-benzo[d]imidazol-4-amine] | 3000 to 30000 | 3000 to 30000 | 3000 to 30000 | 3000 to 30000
Cc1noc(C)c1-c1ccc2ccn(Cc3ccc(F)cc3)c2n1 [Example Compound 49, 4-(1-(4-fluorobenzyl)-1H-pyrrolo[2,3-b]pyridin-6-yl)-3,5-dimethylisoxazole] | 3000 to 30000 | 3000 to 30000 | 3000 to 30000 | 3000 to 30000
CC(=O)Nc1cc(-c2c(C)noc2C)cc2c1[nH]c(=O)n2Cc1ccccc1 [compound 111, N-(1-benzyl-6-(3,5-dimethylisoxazol-4-yl)-2-oxo-2,3-dihydro-1H-benzo[d]imidazol-4-yl)acetamide] | ≤ 300 | ≤ 300 | ≤ 300 | ≤ 300
Cc1noc(C)c1-c1cnc2nc(NCc3cccc(C#N)c3)n(Cc3ccccc3)c2c1 [compound 217, 3-(((1-benzyl-6-(3,5-dimethylisoxazol-4-yl)-1H-imidazo[4,5-b]pyridin-2-yl)amino)methyl)benzonitrile] | ≤ 300 | ≤ 300 | ≤ 300 | 300 to 3000
Cc1noc(C)c1-c1cnc2nc(C3CCOCC3)n(Cc3ccccc3)c2c1 [compound 220, 4-(1-benzyl-2-(tetrahydro-2H-pyran-4-yl)-1H-imidazo[4,5-b]pyridin-6-yl)-3,5-dimethylisoxazole] | 300 to 3000 | 3000 to 30000 | ≤ 300 | 300 to 3000
CNc1nc2c([N+](=O)[O-])cc(-c3c(C)noc3C)cc2n1Cc1ccccc1 [compound 149, 1-benzyl-6-(3,5-dimethylisoxazol-4-yl)-N-methyl-4-nitro-1H-benzo[d]imidazol-2-amine] | ≤ 300 | ≤ 300 | ≤ 300 | 300 to 3000
Cc1noc(C)c1-c1cc2c(ncn2Cc2ccccc2)c(N)n1 [Example Compound 33, 1-benzyl-6-(3,5-dimethylisoxazol-4-yl)-1H-imidazo[4,5-c]pyridin-4-amine] | 300 to 3000 | 300 to 3000 | ≤ 300 | 3000 to 30000
Cc1noc(C)c1-c1cnc2nc(C)n(Cc3cccnc3)c2c1 [compound 68, 3,5-dimethyl-4-(2-methyl-1-(pyridin-3-ylmethyl)-1H-imidazo[4,5-b]pyridin-6-yl)isoxazole] | 300 to 3000 | 300 to 3000 | ≤ 300 | 3000 to 30000
Cc1noc(C)c1-c1cnc2nc(C)n(C(C)c3ccccc3)c2c1 (stereo not shown) [compound 108, 3,5-dimethyl-4-(2-methyl-1-(1-phenylethyl)-1H-imidazo[4,5-b]pyridin-6-yl)isoxazole] | ≤ 300 | 300 to 3000 | ≤ 300 | 300 to 3000
Cc1noc(C)c1-c1ccc2c(c1)N(Cc1ccccc1)CC(=O)N2 [compound 156, 4-benzyl-6-(3,5-dimethylisoxazol-4-yl)-3,4-dihydroquinoxalin-2(1H)-one] | 300 to 3000 | 300 to 3000 | ≤ 300 | 300 to 3000
Cc1nc2c(N)cc(-c3ccnn3C)cc2n1Cc1ccccc1 [compound 94, 1-benzyl-2-methyl-6-(1-methyl-1H-pyrazol-5-yl)-1H-benzo[d]imidazol-4-amine] | 300 to 3000 | 300 to 3000 | ≤ 300 | 300 to 3000
Cc1noc(C)c1-c1cnc2nc(C)n(Cc3ccncc3)c2c1 [compound 74, 3,5-dimethyl-4-(2-methyl-1-(pyridin-4-ylmethyl)-1H-imidazo[4,5-b]pyridin-6-yl)isoxazole] | 300 to 3000 | 3000 to 30000 | 300 to 3000 | 3000 to 30000
Cc1noc(C)c1-c1cnc2ccn(Cc3ccc(F)cc3)c2n1 [Example Compound 50, 4-(5-(4-fluorobenzyl)-5H-pyrrolo[2,3-b]pyrazin-3-yl)-3,5-dimethylisoxazole] | 300 to 3000 | 3000 to 30000 | ≤ 300 | 3000 to 30000
Cc1noc(C)c1-c1cnc2[nH]c(=O)n([C@H](C)c3ccccc3)c2c1 [compound 218, (R)-6-(3,5-dimethylisoxazol-4-yl)-1-(1-phenylethyl)-1H-imidazo[4,5-b]pyridin-2(3H)-one] | 300 to 3000 | 300 to 3000 | ≤ 300 | 3000 to 30000
Cc1noc(C)c1-c1cc([N+](=O)[O-])c2nc(C)n(CC3CCC3)c2c1 [compound 116, 4-(1-(cyclobutylmethyl)-2-methyl-4-nitro-1H-benzo[d]imidazol-6-yl)-3,5-dimethylisoxazole] | 300 to 3000 | ≤ 300 | ≤ 300 | ≤ 300
Cc1noc(C)c1-c1cnc2c(C#N)cn(Cc3ccccc3)c2c1 [compound 88, 1-benzyl-6-(3,5-dimethylisoxazol-4-yl)-1H-pyrrolo[3,2-b]pyridine-3-carbonitrile] | ≤ 300 | 300 to 3000 | ≤ 300 | 300 to 3000
